Data taken from US10285986B2, “Compounds and anti-tumor NQO1 substrates” (The Board of Trustees of the University of Illinois, priority 2011, dated 2019).
Converted amounts (≈) assume the structure as drawn. Like-named read-outs stand apart in the source and are kept apart here. Blank lines part the entries; values can stand above or below the molecule they belong to.

Assays:
MCF-7 cells = test: Cytotoxicity to MCF-7 cells with or without 25 μM dicoumarol (sulforhodamine B assay); assay type: cell-based, human; details: for Fold protection by DIC: Table 4.2
Procedure: The NQO1-dependent cytotoxicity of the first set of derivatives was determined in MCF-7 cells which express high levels of NQO1. Cells were exposed to DNQ for 2 hours in the presence or absence of 25 μM DIC. The media was then removed and cells were washed once with media then fresh media was added and the cells were incubated for 72 hours. Cell death was assessed using the sulforhodamine B assay previously described. […] Substitution off the nitrogen appeared well tolerated (4-14 and 4-15).
The DNQ derivatives synthesized were assayed for their toxicity to MCF-7 cells with or without DIC. The data from these experiments is organized in Table 4.2. […] This tolerance of sterically-demanding substituents corresponds with a flexible and promiscuous NQO1 active site. The poor activity of hydroxyl derivative 4-41 may be a result of either poor binding with the largely hydrophobic NQO1 active site or with an excessively strong substrate-enzyme interaction because of hydrogen bonding.

[1] = Aqueous solubility in pH 7.4 PBS by LC-MS; assay type: physicochemical; details: phosphate buffered saline, pH 7.4, aqueous buffer, thermodynamic from solid, PBS pH 7.4; Table 4.3
Procedure: The aqueous solubility of DNQ at pH 7.4 in phosphate buffered saline (PBS) was measured by LC-MS. DNQ was sonicated for 30 minutes in PBS then undissolved solid was removed by filtration through a 0.45 μm syringe filter and the filtrate was analyzed by LC-MS (λ=275 nm, ESI-TOF in negative mode). The optimal sonication time was determined by sonicating DNQ for 1, 5, 10, and 30 minutes. While the concentration of DNQ in solution increased substantially between 1, 5, and 10 minutes, there was only a minor difference between 10 and 30 minutes. During the 30 minute sonication the water bath warmed to 45° C. (samples were cooled to room temperature before filtration). A calibration curve was generated from 1-100 μM by dissolving DNQ in methanol to a concentration of 500 μM and making dilutions of this stock in 80:20 water:methanol. The calibration curve (measure by UV absorbance) was linear over this range; 1 μM was approximately the limit of detection. […] The solution was very pale yellow.
The aqueous solubility of the compounds was determined by an LC-MS assay as described in the specification above. We applied the calibration curve generated for DNQ to the derivatives under the assumption that the UV profile of the derivatives of DNQ would be similar to that of DNQ.
After sonication and filtration most of the aqueous solutions were colorless. The solutions of DNQ, 4-31, and 4-37 were faintly yellow while 4-8, 4-14 and 4-41 were substantially more colored. The solution of 4-8, 4-14 and 4-41 were diluted 10-fold with PBS prior to LC-MS analysis to ensure that the concentrations fell within the range of the calibration curve.

[2] = Solubility in organic solvents; assay type: physicochemical; details: for solubility: organic solvent or mixture, thermodynamic from solid
Procedure: The solubility of DNQ derivatives in organic solvents was determined by measuring the amount of a given solvent required to dissolve a known amount of compound. Solvent was added to the compound in 50 μL aliquots and the slurry was sonicated. […] Solubility was assessed in DMSO, dichloromethane, and 33% methanol in dichloromethane (FIGS. 9, 10, and 11, respectively).

[3] = Solubility in 20% HPβCD solution (pH modulation protocol); assay type: physicochemical; details: 20% HPβCD in pH 7.4 PBS, pH 7.4, aqueous with cosolvent or surfactant or cyclodextrin, thermodynamic from solid; 20% HPβCD; Table 4.3
Procedure: The protocol for formulating DNQ compounds in HPβCD is as follows: the DNQ compound is slurried in a 20% solution of HPβCD in pH 7.4 PBS and the pH is then increased by the addition of 10 M NaOH to induce dissolution of the DNQ compound. The pH is returned to pH 7.5-8.0 by the careful addition of 1 M HCl. A 3.3 mM solution of the DNQ compound can be made by this method which is stable at least 24 hours. This represents a 30-fold increase in solubility of DNQ over PBS alone.
Although we were pleased to find active derivatives of DNQ that were up to 4-fold more soluble in water—sufficiently soluble for continuous IV infusion for human administration—this level of solubility was insufficient for animal studies by bolus injection. […] We used the same pH modulation protocol outlined for DNQ described in the specification above. The results are organized in Table 4.3 and FIG. 8. While all compounds were more soluble in HPβCD than in buffer alone, the fold increase in solubility varied widely.

NQO1 = NQO1 (Homo sapiens, UniProt P15559); test: NQO1 enzymatic measurements in vitro; assay type: biochemical; details: 1 μM substrate
Procedure: As further evidence that the activity of these DNQ derivatives is dependent on their ability to be reduced by NQO1, full enzymatic measurements in vitro were performed. We found a strong correlation between catalytic efficiency of substrates in vitro and their cell culture toxicity. […] This provides strong evidence that the cytotoxicity of DNQ and its derivatives are dependent primarily upon the activity of NQO1 within the cell.

[4] = Solubility in organic solvents; assay type: physicochemical; details: organic solvent or mixture, thermodynamic from solid; THF; Table 1
[5] = Homo sapiens, MCF7, Table 4.2, no DIC, ± s.e., read-out: IC50 vs. MCF-7 cells
[6] = Homo sapiens, MCF7, classification in figure legends of FIGS. 7-11, read-out: IC50 ("active" / generally "inactive" compounds)
[7] = Homo sapiens, MCF7, read-out: IC50 vs. MCF-7 cells +25 μM DIC, Table 4.2, +25 μM DIC, ± s.e.
[8] = 2:1 CH2Cl2:MeOH, Table 4.3, read-out: Solubility in 2:1 CH2Cl2:MeOH
[9] = CH2Cl2, Table 4.3, read-out: Solubility in CH2Cl2
[10] = DMSO, Table 4.3, read-out: Solubility in DMSO
[11] = Homo sapiens, MCF7, Table 1, read-out: MCF7 IC50
[12] = CH2Cl2:MeOH 2:1, Table 1, read-out: CH2Cl2:MeOH 2:1 solubility
[13] = CH2Cl2, Table 1, read-out: CH2Cl2 solubility
[14] = DMSO, Table 1, read-out: DMSO solubility

NQO1, sequence (P15559 whole entry): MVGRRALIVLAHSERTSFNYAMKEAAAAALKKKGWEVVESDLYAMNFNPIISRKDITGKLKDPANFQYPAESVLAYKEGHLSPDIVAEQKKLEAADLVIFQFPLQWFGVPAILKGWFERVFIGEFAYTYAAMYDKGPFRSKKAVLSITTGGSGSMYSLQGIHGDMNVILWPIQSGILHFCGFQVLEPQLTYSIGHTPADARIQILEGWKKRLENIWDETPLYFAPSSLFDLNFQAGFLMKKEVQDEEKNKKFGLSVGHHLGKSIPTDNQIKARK

Compound: CO[C@@]12[C@H](COC(N)=O)C3=C(C(=O)C(C)=C(N)C3=O)N1C[C@@H]1N[C@@H]12 [MMC, mitomycin C, reference compound]
- Fold Protection of MCF7 cells w/ 25 μM dicoumarol (MCF-7 cells; Table 1): 1
- IC50 (MCF-7 cells; Table 1, read-out: MCF7 IC50): 14000 nM

Compound: Cc1cc(=O)[nH]c2c1C(=O)c1c(C)cc(=O)[nH]c1C2=O [Compound 2-78, reference compound]
- solubility in solvents evaluated [2]: insoluble in all solvents evaluated except concentrated acids or bases

Compound: CC1=C(N2CC2)C(=O)C(CO)=C(N2CC2)C1=O [RH1, reference compound]
- Fold Protection of MCF7 cells w/ 25 μM dicoumarol (MCF-7 cells; Table 1): 0.85
- IC50 (MCF-7 cells; Table 1, read-out: MCF7 IC50): 210 nM

Compound: Cc1cc(=O)n(C)c2c1C(=O)c1c(C)cc(=O)n(C)c1C2=O [SCH, reference compound]
- NQO1 Initial Velocity @ 1 μM (NQO1): 32 ± 2
- IC50 (MCF-7 cells; [11]): 3900 nM
- Fold Protection of MCF7 cells w/ 25 μM dicoumarol (MCF-7 cells; Table 1): 3.5
- solubility [4]: 3.7 mM (≈ 1100 µg/mL)
- solubility [2, 12]: 60 mM (≈ 17900 µg/mL)
- solubility [2, 13]: 25 mM (≈ 7460 µg/mL)
- solubility [2, 14]: 15 mM (≈ 4470 µg/mL)

More lines, main results first:

- solubility at 30 min [1]: 0.024 mM (≈ 9.13 µg/mL)
- solubility [2, 8]: 46 mM (≈ 17500 µg/mL)
- solubility [2, 9]: 120 mM (≈ 45700 µg/mL)
- solubility [2, 10]: 71 mM (≈ 27000 µg/mL)
Compound: Cc1cc(=O)[nH]c2c1C(=O)c1c(C)cc(=O)n(C3CCCCCCC3)c1C2=O [Compound 4-39]
- IC50 (MCF-7 cells; [5]): 830 ± 70 nM
- IC50 (MCF-7 cells; [6]): > 500 nM
- IC50 (MCF-7 cells; [7]): 4100 ± 800 nM
- Fold protection by DIC (MCF-7 cells): 3.8

- solubility at 30 min [1]: < 0.005 mM
- solubility [2, 9]: 30 mM (≈ 11100 µg/mL)
- solubility [2, 10]: 13 mM (≈ 4790 µg/mL)
- solubility [3]: 3 mM (≈ 1110 µg/mL)
Compound: CCCCCCCn1c2c(c(C)cc1=O)C(=O)c1c(C)cc(=O)[nH]c1C2=O [Compound 4-25]
- IC50 (MCF-7 cells; [5]): 420 ± 110 nM
- IC50 (MCF-7 cells; [6]): < 500 nM
- IC50 (MCF-7 cells; [7]): 4500 ± 400 nM
- Fold protection by DIC (MCF-7 cells): 11

- NQO1 Initial Velocity @ 1 μM (NQO1): 1600 ± 200
- solubility at 30 min [1]: 0.485 mM (≈ 159 µg/mL)
- solubility [4]: 0.67 mM (≈ 220 µg/mL)
- Solubility in CH2Cl2 ([2]; CH2Cl2, Table 4.3): 0.3 mM (≈ 98.5 µg/mL)
- Solubility in DMSO ([2]; DMSO, Table 4.3): 24 mM (≈ 7880 µg/mL)
- solubility [2, 8]: 11 mM (≈ 3610 µg/mL)
- solubility [2, 12]: 11 mM (≈ 3610 µg/mL)
- solubility [2, 13]: 0.3 mM (≈ 98.5 µg/mL)
- solubility [2, 14]: 24 mM (≈ 7880 µg/mL)
Compound: Cc1cc(=O)[nH]c2c1C(=O)c1c(C)cc(=O)n(CCCO)c1C2=O [Compound 9-281]
- IC50 (MCF-7 cells; [11]): 790 ± 100 nM
- IC50 (MCF-7 cells; [5]): 680 ± 150 nM
- IC50 (MCF-7 cells; [6]): > 500 nM
- IC50 (MCF-7 cells; [7]): 3400 ± 600 nM
- Fold Protection of MCF7 cells w/ 25 μM dicoumarol (MCF-7 cells; Table 1): 4
- Fold protection by DIC (MCF-7 cells): 5.0
